How the values were obtained:
Test in all cases: relative viability (nuclei count vs DMSO), 5 days (fraction); higher = more cells survive
[1] = compound: C1/C(=C\C2=CC=CS2)/C(=O)/C(=C/C3=CC=CS3)/C1 + CC1(C)CCC(c2ccc(Cl)cc2)=C(CN2CCN(c3ccc(C(=O)NS(=O)(=O)c4ccc(N[C@H](CCN5CCOCC5)CSc5ccccc5)c(S(=O)(=O)C(F)(F)F)c4)cc3)CC2)C1 [Navitoclax] (partner 0.5 µM)
In short: (§1)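 The day after seeding in 1536-well plates, lung cancer cell lines were treated by pin tool with a single drug, or with a fixed anchor-drug dose together with five library-drug doses (not always all listed) in √10 steps. After 5 days, a combined fix-and-stain solution (final 0.05% Triton X-100, 1% formaldehyde, 1 ug/ml Hoechst) was added. Nuclei counted on 4× images gave relative viability as treated counts over vehicle counts, reported as the median of duplicate plates.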

[2] = compound: C1/C(=C\C2=CC=CS2)/C(=O)/C(=C/C3=CC=CS3)/C1 + CS(=O)(=O)CCNCc1ccc(-c2ccc3ncnc(Nc4ccc(OCc5cccc(F)c5)c(Cl)c4)c3c2)o1 [Lapatinib] (partner 2 µM)
In short: as §1

TPCA-1 + Bortezomib = compound: C1=CC(=CC=C1C2=CC(=C(S2)NC(=O)N)C(=O)N)F [TPCA-1] + CC(C)C[C@H](NC(=O)[C@H](Cc1ccccc1)NC(=O)c1cnccn1)B(O)O [Bortezomib] (partner 0.002 µM)
In short: as §1

TPCA-1 + Linsitinib = compound: C1=CC(=CC=C1C2=CC(=C(S2)NC(=O)N)C(=O)N)F [TPCA-1] + C[C@]1(O)C[C@@H](c2nc(-c3ccc4ccc(-c5ccccc5)nc4c3)c3c(N)nccn32)C1 [Linsitinib] (partner 1 µM)
In short: as §1

NCI-H1651
relative viability ([1]; first compound 0.2 µM): 1.25
relative viability ([1]; first compound 0.6325 µM): 1.01
relative viability ([1]; first compound 2 µM): 1.07
relative viability ([1]; first compound 20 µM): 1.11
relative viability ([2]; first compound 0.2 µM): 0.81
relative viability ([2]; first compound 0.6325 µM): 0.93
relative viability ([2]; first compound 2 µM): 0.793
relative viability ([2]; first compound 20 µM): 0.769
relative viability (TPCA-1 + Bortezomib; first compound 0.04 µM): 0.909
relative viability (TPCA-1 + Bortezomib; first compound 0.1265 µM): 0.927
relative viability (TPCA-1 + Bortezomib; first compound 0.4 µM): 0.917
relative viability (TPCA-1 + Bortezomib; first compound 1.265 µM): 0.891
relative viability (TPCA-1 + Bortezomib; first compound 4 µM): 0.649
relative viability (TPCA-1 + Linsitinib; first compound 0.04 µM): 1.13
relative viability (TPCA-1 + Linsitinib; first compound 0.1265 µM): 0.891
relative viability (TPCA-1 + Linsitinib; first compound 0.4 µM): 0.985
relative viability (TPCA-1 + Linsitinib; first compound 1.265 µM): 0.947
relative viability (TPCA-1 + Linsitinib; first compound 4 µM): 0.974

HARA
relative viability ([1]; first compound 0.2 µM): 1.1
relative viability ([1]; first compound 0.6325 µM): 1.15
relative viability ([1]; first compound 2 µM): 1.13
relative viability ([1]; first compound 6.325 µM): 0.497
relative viability ([1]; first compound 20 µM): 1.11
relative viability ([2]; first compound 0.2 µM): 0.768
relative viability ([2]; first compound 0.6325 µM): 0.657
relative viability ([2]; first compound 2 µM): 0.874
relative viability ([2]; first compound 6.325 µM): 0.321
relative viability ([2]; first compound 20 µM): 0.818
relative viability (TPCA-1 + Bortezomib; first compound 0.04 µM): 1.08
relative viability (TPCA-1 + Bortezomib; first compound 0.1265 µM): 1.13
relative viability (TPCA-1 + Bortezomib; first compound 0.4 µM): 1.14
relative viability (TPCA-1 + Bortezomib; first compound 1.265 µM): 1.03
relative viability (TPCA-1 + Bortezomib; first compound 4 µM): 1.07
relative viability (TPCA-1 + Linsitinib; first compound 0.04 µM): 0.916
relative viability (TPCA-1 + Linsitinib; first compound 0.1265 µM): 0.856
relative viability (TPCA-1 + Linsitinib; first compound 0.4 µM): 1.05
relative viability (TPCA-1 + Linsitinib; first compound 1.265 µM): 0.924
relative viability (TPCA-1 + Linsitinib; first compound 4 µM): 0.804

NCI-H2347
relative viability ([1]; first compound 0.2 µM): 0.721
relative viability ([1]; first compound 0.6325 µM): 0.741
relative viability ([1]; first compound 2 µM): 0.725
relative viability ([1]; first compound 6.325 µM): 0.857
relative viability ([1]; first compound 20 µM): 0.801
relative viability ([2]; first compound 0.2 µM): 1.03
relative viability ([2]; first compound 0.6325 µM): 0.977
relative viability ([2]; first compound 2 µM): 0.901
relative viability ([2]; first compound 6.325 µM): 0.898
relative viability ([2]; first compound 20 µM): 0.915
relative viability (TPCA-1 + Bortezomib; first compound 0.04 µM): 0.945
relative viability (TPCA-1 + Bortezomib; first compound 0.4 µM): 0.894
relative viability (TPCA-1 + Bortezomib; first compound 1.265 µM): 0.662
relative viability (TPCA-1 + Bortezomib; first compound 4 µM): 1.16
relative viability (TPCA-1 + Linsitinib; first compound 0.04 µM): 1.14
relative viability (TPCA-1 + Linsitinib; first compound 0.1265 µM): 1.02
relative viability (TPCA-1 + Linsitinib; first compound 0.4 µM): 0.899
relative viability (TPCA-1 + Linsitinib; first compound 1.265 µM): 0.931
relative viability (TPCA-1 + Linsitinib; first compound 4 µM): 0.903

201T
relative viability ([1]; first compound 0.2 µM): 1.24
relative viability ([1]; first compound 0.6325 µM): 1.17
relative viability ([1]; first compound 2 µM): 1.27
relative viability ([1]; first compound 6.325 µM): 1.13
relative viability ([1]; first compound 20 µM): 1.2
relative viability ([2]; first compound 0.2 µM): 1.01
relative viability ([2]; first compound 0.6325 µM): 1.01
relative viability ([2]; first compound 2 µM): 1.14
relative viability ([2]; first compound 6.325 µM): 0.979
relative viability ([2]; first compound 20 µM): 1.05
relative viability (TPCA-1 + Bortezomib; first compound 0.04 µM): 1.12
relative viability (TPCA-1 + Bortezomib; first compound 0.1265 µM): 1.1
relative viability (TPCA-1 + Bortezomib; first compound 0.4 µM): 1.19
relative viability (TPCA-1 + Bortezomib; first compound 1.265 µM): 1.12
relative viability (TPCA-1 + Bortezomib; first compound 4 µM): 1.12
relative viability (TPCA-1 + Linsitinib; first compound 0.04 µM): 1.03
relative viability (TPCA-1 + Linsitinib; first compound 0.1265 µM): 0.982
relative viability (TPCA-1 + Linsitinib; first compound 0.4 µM): 1.09
relative viability (TPCA-1 + Linsitinib; first compound 1.265 µM): 1.09
relative viability (TPCA-1 + Linsitinib; first compound 4 µM): 0.835

PC-14
relative viability ([1]; first compound 0.2 µM): 1.05
relative viability ([1]; first compound 0.6325 µM): 0.987
relative viability ([1]; first compound 2 µM): 0.978
relative viability ([1]; first compound 6.325 µM): 0.88
relative viability ([1]; first compound 20 µM): 0.999
relative viability ([2]; first compound 0.2 µM): 0.352
relative viability ([2]; first compound 0.6325 µM): 0.362
relative viability ([2]; first compound 2 µM): 0.353
relative viability ([2]; first compound 6.325 µM): 0.293
relative viability ([2]; first compound 20 µM): 0.27
relative viability (TPCA-1 + Bortezomib; first compound 0.04 µM): 0.903
relative viability (TPCA-1 + Bortezomib; first compound 0.1265 µM): 0.787
relative viability (TPCA-1 + Bortezomib; first compound 0.4 µM): 0.936
relative viability (TPCA-1 + Bortezomib; first compound 1.265 µM): 0.785
relative viability (TPCA-1 + Bortezomib; first compound 4 µM): 0.574
relative viability (TPCA-1 + Linsitinib; first compound 0.04 µM): 0.939
relative viability (TPCA-1 + Linsitinib; first compound 0.1265 µM): 0.978
relative viability (TPCA-1 + Linsitinib; first compound 0.4 µM): 0.926
relative viability (TPCA-1 + Linsitinib; first compound 1.265 µM): 0.966
relative viability (TPCA-1 + Linsitinib; first compound 4 µM): 0.692

Calu-6
relative viability ([1]; first compound 0.2 µM): 0.855
relative viability ([1]; first compound 0.6325 µM): 0.848
relative viability ([1]; first compound 2 µM): 0.91
relative viability ([1]; first compound 6.325 µM): 0.811
relative viability ([1]; first compound 20 µM): 0.857
relative viability ([2]; first compound 0.2 µM): 1.02
relative viability ([2]; first compound 0.6325 µM): 1.03
relative viability ([2]; first compound 2 µM): 0.981
relative viability ([2]; first compound 6.325 µM): 0.991
relative viability ([2]; first compound 20 µM): 0.986
relative viability (TPCA-1 + Bortezomib; first compound 0.04 µM): 1.1
relative viability (TPCA-1 + Bortezomib; first compound 0.1265 µM): 0.933
relative viability (TPCA-1 + Bortezomib; first compound 0.4 µM): 1.09
relative viability (TPCA-1 + Bortezomib; first compound 1.265 µM): 0.873
relative viability (TPCA-1 + Bortezomib; first compound 4 µM): 0.658
relative viability (TPCA-1 + Linsitinib; first compound 0.04 µM): 1.15
relative viability (TPCA-1 + Linsitinib; first compound 0.1265 µM): 0.941
relative viability (TPCA-1 + Linsitinib; first compound 0.4 µM): 0.962
relative viability (TPCA-1 + Linsitinib; first compound 1.265 µM): 0.847
relative viability (TPCA-1 + Linsitinib; first compound 4 µM): 0.68

NCI-H1703
relative viability ([1]; first compound 0.2 µM): 1.3
relative viability ([1]; first compound 0.6325 µM): 1.8
relative viability ([1]; first compound 2 µM): 1.32
relative viability ([1]; first compound 6.325 µM): 1.05
relative viability ([1]; first compound 20 µM): 1.14
relative viability ([2]; first compound 0.2 µM): 1.21
relative viability ([2]; first compound 0.6325 µM): 1.21
relative viability ([2]; first compound 2 µM): 1.18
relative viability ([2]; first compound 6.325 µM): 1.1
relative viability ([2]; first compound 20 µM): 1.11
relative viability (TPCA-1 + Bortezomib; first compound 0.04 µM): 0.299
relative viability (TPCA-1 + Bortezomib; first compound 0.1265 µM): 0.385
relative viability (TPCA-1 + Bortezomib; first compound 0.4 µM): 0.394
relative viability (TPCA-1 + Bortezomib; first compound 1.265 µM): 0.41
relative viability (TPCA-1 + Bortezomib; first compound 4 µM): 0.367
relative viability (TPCA-1 + Linsitinib; first compound 0.04 µM): 1.01
relative viability (TPCA-1 + Linsitinib; first compound 0.1265 µM): 0.627
relative viability (TPCA-1 + Linsitinib; first compound 0.4 µM): 0.947
relative viability (TPCA-1 + Linsitinib; first compound 1.265 µM): 0.546
relative viability (TPCA-1 + Linsitinib; first compound 4 µM): 0.308

NCI-H727
relative viability ([1]; first compound 0.2 µM): 0.528
relative viability ([1]; first compound 0.6325 µM): 0.426
relative viability ([1]; first compound 2 µM): 0.503
relative viability ([1]; first compound 6.325 µM): 0.302
relative viability ([1]; first compound 20 µM): 0.391
relative viability ([2]; first compound 0.2 µM): 0.735
relative viability ([2]; first compound 0.6325 µM): 0.877
relative viability ([2]; first compound 2 µM): 1.02
relative viability ([2]; first compound 6.325 µM): 0.701
relative viability ([2]; first compound 20 µM): 0.752
relative viability (TPCA-1 + Bortezomib; first compound 0.04 µM): 1.07
relative viability (TPCA-1 + Bortezomib; first compound 0.1265 µM): 0.707
relative viability (TPCA-1 + Bortezomib; first compound 0.4 µM): 0.923
relative viability (TPCA-1 + Bortezomib; first compound 1.265 µM): 0.674
relative viability (TPCA-1 + Bortezomib; first compound 4 µM): 0.696
relative viability (TPCA-1 + Linsitinib; first compound 0.04 µM): 0.203
relative viability (TPCA-1 + Linsitinib; first compound 0.1265 µM): 0.318
relative viability (TPCA-1 + Linsitinib; first compound 0.4 µM): 0.342
relative viability (TPCA-1 + Linsitinib; first compound 1.265 µM): 0.223
relative viability (TPCA-1 + Linsitinib; first compound 4 µM): 0.244

From the supplement of paper PMC10307832
